Test results reported in ChEMBL document CHEMBL5465560, “Selectivity Literature for EUbOPEN Chemogenomic Library” (2024).

How the values were obtained:
[1] = molecular target: Ribosomal protein S6 kinase alpha-5 (Homo sapiens) (UniProt O75582); assay: Selectivity interaction (SelectScreen profiling (Invitrogen)) EUB0000607a RPS6KA5; settings: at 2 µM
[2] = molecular target: Calcium/calmodulin-dependent protein kinase type II subunit delta (Homo sapiens) (UniProt Q13557); assay: Selectivity interaction (KinomeScan (DiscoverX)) EUB0000607a CAMK2D; settings: at 10 µM
[3] = molecular target: Protein arginine N-methyltransferase 3 (Homo sapiens, UniProt O60678); assay: Selectivity interaction (Methyltransferase screen (Scintillation proximity assays)) EUB0000255b PRMT3
[4] = molecular target: T1, Interleukin-1 receptor-associated kinase 4 (Homo sapiens) (UniProt Q9NWZ3); assay: Selectivity interaction (KinomeScan (DiscoverX)) EUB0000595a IRAK4; settings: at 10 µM
T1 sequence (whole entry): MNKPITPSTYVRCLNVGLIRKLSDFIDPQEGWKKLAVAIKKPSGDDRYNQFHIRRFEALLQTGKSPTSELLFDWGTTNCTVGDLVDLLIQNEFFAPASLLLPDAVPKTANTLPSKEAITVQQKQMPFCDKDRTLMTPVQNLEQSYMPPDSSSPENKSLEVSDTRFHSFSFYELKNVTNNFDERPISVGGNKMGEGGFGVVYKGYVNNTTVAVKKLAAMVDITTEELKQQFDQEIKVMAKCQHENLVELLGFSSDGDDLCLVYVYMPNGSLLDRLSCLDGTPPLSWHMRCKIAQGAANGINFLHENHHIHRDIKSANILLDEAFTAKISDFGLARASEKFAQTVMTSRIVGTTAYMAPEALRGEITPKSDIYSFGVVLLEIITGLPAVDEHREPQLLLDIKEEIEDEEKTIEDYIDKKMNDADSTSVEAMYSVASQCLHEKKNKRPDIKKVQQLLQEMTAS

[5] = molecular target: T2, Serine/threonine-protein kinase TAO1 (Homo sapiens) (UniProt Q7L7X3); assay: Selectivity interaction (KinomeScan (DiscoverX)) EUB0001049a TAOK1; settings: at 1 µM
T2 sequence (whole entry): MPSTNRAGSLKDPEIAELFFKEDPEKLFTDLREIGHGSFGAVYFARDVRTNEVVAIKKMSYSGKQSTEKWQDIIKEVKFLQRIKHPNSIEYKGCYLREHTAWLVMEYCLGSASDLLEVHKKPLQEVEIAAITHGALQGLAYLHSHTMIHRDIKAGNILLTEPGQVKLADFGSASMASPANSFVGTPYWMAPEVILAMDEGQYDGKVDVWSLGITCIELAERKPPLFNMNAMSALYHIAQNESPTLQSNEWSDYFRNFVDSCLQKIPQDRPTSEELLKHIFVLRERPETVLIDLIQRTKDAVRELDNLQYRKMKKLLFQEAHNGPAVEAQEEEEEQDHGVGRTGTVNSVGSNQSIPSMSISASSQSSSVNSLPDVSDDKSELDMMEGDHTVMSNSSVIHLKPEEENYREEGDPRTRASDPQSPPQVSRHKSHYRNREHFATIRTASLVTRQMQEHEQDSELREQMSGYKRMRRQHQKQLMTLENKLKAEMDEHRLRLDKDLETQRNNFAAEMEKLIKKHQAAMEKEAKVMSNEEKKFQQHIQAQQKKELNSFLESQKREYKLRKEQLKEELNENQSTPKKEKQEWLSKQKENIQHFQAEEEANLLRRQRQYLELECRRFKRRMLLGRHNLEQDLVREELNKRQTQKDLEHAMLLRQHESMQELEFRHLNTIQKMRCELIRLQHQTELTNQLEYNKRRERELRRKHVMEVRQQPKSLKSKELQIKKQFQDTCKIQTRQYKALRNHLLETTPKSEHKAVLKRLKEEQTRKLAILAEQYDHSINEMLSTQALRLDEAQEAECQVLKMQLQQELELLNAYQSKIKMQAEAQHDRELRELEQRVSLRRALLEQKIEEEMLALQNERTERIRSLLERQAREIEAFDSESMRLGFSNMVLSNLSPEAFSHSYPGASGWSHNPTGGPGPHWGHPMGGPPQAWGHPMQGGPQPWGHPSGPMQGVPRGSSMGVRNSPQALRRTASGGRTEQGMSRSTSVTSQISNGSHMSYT

[6] = molecular target: T3, Serine/threonine-protein kinase LATS2 (Homo sapiens) (UniProt Q9NRM7); assay: Selectivity interaction (KinomeScan (DiscoverX)) EUB0000655a LATS2; settings: at 10 µM
T3 sequence (whole entry): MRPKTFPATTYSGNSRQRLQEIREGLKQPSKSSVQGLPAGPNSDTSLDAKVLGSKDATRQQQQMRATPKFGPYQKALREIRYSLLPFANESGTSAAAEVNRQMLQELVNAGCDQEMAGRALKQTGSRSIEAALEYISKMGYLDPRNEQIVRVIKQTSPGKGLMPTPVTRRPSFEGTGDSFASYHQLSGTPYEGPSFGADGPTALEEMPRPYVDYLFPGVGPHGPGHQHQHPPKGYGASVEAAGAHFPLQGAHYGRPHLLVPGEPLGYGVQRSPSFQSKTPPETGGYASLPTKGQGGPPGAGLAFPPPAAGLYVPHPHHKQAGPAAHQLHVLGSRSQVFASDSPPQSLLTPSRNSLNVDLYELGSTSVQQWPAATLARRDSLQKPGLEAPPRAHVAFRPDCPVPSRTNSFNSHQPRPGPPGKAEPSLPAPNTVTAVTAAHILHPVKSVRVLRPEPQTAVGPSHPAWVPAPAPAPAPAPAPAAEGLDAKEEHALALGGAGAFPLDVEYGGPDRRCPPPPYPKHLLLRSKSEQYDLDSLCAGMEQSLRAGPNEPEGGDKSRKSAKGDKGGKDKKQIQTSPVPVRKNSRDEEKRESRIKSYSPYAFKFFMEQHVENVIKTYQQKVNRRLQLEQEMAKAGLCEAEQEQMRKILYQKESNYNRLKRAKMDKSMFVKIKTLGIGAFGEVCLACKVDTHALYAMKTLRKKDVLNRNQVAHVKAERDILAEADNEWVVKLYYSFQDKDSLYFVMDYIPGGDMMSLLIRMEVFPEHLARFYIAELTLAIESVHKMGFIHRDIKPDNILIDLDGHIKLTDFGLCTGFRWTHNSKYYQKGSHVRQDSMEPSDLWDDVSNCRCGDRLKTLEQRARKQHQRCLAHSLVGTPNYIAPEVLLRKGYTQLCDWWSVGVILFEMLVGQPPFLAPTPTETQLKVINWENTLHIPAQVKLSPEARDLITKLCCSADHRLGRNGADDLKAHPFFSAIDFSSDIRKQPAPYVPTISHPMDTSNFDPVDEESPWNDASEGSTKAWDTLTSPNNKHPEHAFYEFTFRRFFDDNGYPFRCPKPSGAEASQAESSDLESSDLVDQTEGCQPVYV

[7] = molecular target: Fibroblast growth factor receptor 1 (Homo sapiens, UniProt P11362); assay: Selectivity interaction (KinomeScan (DiscoverX)) EUB0000045b FGFR1
[8] = molecular target: Ephrin type-A receptor 7 (Homo sapiens) (UniProt Q15375); assay: Selectivity interaction (KinomeScan (DiscoverX)) EUB0000092b EPHA7; settings: at 10 µM
Sequence of Ephrin type-A receptor 7 (Homo sapiens) (Q15375 28-998 limits assumed): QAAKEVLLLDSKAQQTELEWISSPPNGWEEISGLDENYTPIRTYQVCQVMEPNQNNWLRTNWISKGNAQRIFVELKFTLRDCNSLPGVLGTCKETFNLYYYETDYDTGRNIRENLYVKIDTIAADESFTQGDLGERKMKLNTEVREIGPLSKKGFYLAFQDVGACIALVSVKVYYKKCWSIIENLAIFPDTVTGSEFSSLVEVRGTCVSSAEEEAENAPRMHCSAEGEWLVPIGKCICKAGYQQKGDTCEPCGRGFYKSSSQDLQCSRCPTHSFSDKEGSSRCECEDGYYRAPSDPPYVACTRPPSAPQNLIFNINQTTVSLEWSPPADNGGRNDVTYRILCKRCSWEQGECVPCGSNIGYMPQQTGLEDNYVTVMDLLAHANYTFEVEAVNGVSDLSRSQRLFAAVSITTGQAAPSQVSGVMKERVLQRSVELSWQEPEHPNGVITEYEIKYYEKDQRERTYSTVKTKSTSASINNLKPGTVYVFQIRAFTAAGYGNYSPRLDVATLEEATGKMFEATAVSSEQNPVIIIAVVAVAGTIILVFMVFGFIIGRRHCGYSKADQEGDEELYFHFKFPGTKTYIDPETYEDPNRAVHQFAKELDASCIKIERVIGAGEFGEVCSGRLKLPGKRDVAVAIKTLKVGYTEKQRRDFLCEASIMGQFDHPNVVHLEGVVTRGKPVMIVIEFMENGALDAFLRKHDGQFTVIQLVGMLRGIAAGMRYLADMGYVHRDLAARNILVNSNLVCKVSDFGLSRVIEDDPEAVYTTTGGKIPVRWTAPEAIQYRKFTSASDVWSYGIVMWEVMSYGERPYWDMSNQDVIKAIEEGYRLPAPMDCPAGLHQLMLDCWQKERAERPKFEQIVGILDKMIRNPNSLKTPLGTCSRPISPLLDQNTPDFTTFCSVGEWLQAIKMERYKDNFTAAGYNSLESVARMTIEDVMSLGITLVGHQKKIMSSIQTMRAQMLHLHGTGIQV

Sequence of Protein arginine N-methyltransferase 3 (O60678 2-531 limits assumed): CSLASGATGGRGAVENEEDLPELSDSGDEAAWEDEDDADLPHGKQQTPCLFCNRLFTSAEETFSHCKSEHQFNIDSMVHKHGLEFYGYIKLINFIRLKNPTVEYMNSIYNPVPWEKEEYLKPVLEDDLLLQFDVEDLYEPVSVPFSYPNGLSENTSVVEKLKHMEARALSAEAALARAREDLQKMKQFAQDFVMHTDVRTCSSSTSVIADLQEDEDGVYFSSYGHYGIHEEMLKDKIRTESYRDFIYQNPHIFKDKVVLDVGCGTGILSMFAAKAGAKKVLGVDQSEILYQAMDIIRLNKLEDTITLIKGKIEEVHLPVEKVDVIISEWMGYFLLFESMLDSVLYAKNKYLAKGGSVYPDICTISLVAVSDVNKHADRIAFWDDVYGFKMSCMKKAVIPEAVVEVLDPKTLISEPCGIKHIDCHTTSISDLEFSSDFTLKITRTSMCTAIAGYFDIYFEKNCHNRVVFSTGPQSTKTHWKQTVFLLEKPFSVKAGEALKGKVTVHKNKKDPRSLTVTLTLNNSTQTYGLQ
Sequence of Fibroblast growth factor receptor 1 (P11362 22-822 limits assumed): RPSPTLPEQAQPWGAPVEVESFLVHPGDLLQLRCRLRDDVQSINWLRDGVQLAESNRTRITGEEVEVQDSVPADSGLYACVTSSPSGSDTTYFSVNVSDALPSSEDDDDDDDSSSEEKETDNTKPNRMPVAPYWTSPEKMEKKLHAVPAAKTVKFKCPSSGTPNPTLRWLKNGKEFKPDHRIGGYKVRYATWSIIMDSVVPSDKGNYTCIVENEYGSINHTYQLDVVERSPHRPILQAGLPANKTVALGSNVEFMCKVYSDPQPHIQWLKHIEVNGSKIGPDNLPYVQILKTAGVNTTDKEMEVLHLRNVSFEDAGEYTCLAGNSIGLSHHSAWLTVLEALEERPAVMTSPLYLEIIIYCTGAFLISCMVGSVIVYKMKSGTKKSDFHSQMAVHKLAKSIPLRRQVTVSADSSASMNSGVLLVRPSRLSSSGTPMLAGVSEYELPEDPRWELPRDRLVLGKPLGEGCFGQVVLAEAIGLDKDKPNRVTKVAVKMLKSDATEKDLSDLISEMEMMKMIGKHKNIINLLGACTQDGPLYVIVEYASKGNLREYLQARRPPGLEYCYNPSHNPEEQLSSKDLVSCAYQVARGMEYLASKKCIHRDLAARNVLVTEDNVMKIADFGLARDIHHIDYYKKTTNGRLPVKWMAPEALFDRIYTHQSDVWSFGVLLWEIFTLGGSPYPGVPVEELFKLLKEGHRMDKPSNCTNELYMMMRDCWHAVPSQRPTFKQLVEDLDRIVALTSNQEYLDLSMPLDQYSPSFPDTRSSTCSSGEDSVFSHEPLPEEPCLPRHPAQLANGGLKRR
Sequence of Calcium/calmodulin-dependent protein kinase type II subunit delta (Homo sapiens) (Q13557 whole entry): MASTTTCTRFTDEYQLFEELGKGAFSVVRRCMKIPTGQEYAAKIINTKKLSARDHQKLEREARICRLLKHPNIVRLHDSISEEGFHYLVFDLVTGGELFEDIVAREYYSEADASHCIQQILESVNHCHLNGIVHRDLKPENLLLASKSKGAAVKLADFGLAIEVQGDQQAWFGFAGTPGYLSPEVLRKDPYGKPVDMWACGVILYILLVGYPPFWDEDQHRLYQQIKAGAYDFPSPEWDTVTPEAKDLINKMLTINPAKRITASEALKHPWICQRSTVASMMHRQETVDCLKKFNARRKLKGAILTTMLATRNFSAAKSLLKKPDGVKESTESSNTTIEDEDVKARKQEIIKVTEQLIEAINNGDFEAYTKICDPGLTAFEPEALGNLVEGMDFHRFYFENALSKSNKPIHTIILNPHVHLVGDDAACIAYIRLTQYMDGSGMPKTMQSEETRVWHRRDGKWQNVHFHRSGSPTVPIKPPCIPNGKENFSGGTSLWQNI
Sequence of Ribosomal protein S6 kinase alpha-5 (Homo sapiens) (O75582 whole entry, looked up): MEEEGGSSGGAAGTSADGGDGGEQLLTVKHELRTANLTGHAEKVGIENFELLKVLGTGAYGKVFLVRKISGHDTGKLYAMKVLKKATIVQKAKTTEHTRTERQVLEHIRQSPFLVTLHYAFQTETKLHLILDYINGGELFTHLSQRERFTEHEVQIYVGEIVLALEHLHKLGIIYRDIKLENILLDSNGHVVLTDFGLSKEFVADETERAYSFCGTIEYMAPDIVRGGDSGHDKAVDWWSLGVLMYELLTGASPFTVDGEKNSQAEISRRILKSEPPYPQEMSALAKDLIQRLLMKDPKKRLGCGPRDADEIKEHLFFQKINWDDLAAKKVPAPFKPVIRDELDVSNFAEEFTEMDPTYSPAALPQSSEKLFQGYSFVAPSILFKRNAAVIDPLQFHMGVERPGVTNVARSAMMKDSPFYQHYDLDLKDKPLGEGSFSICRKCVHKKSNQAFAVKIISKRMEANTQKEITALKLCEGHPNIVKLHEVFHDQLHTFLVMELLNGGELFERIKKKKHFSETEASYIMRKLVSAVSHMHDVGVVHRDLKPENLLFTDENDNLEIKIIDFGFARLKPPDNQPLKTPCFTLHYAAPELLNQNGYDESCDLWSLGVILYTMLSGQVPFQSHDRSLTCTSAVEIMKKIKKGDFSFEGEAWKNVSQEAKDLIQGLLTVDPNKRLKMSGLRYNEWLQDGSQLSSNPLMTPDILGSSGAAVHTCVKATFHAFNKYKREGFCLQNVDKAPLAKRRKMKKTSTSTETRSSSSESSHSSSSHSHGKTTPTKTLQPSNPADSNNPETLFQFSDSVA

SMILES: CNC(=O)Nc1ccc(-c2nc(N3CC4CCC(C3)O4)c3cnn(C4CCC5(CC4)OCCO5)c3n2)cc1
- % of inhibition [1]: 1%
- % of control [2]: 100%

SMILES: COCCN1CCC(c2cc(CN(C)C(=O)c3cccc(Oc4ccccc4)c3)ccn2)CC1
- % activity ([3]; at 1 µM): > 95%
- % activity ([3]; at 10 µM): > 90%

SMILES: COCC(=O)NC/C=C/c1ccc2ncnc(Nc3ccc(Oc4ccc(C)nc4)c(C)c3)c2c1 [CP-724714]
- % of control [4]: 100%

SMILES: COc1cc(Nc2nc(C)cc(-c3cnn4nc(OC)ccc34)n2)cc(C(F)(F)F)c1
- % of control [5]: 96%

SMILES: CN(C)CCOc1ccc(-c2nc(-c3ccncc3)c(-c3ccc4c(c3)CC/C4=N\O)[nH]2)cc1
- % of control [6]: 45%

SMILES: C=CC(=O)Nc1cc(-n2c(=O)ccc3cnc4ccc(-c5ccc(NS(C)(=O)=O)cc5)cc4c32)ccc1C
- % of control ([7]; at 1 µM): 92%
- % of control ([7]; at 10 µM): 98%

SMILES: CCC(=O)N1CCN(c2ccc(-n3c(=O)ccc4cnc5ccc(-c6cnc7ccccc7c6)cc5c43)cc2C(F)(F)F)CC1
- % of control [8]: 98%
